# Measured values taken from US10660333B2, “Substituted 2-heterocyclylimidazolylcarboxamides as pesticides” (BAYER CROPSCIENCE AKTIENGESELLSCHAFT, priority 2016, dated 2020).
# Tested on: not listed separately
# Test: log P by HPLC on reversed-phase (C18) columns, OECD Guideline 117
# Type: physicochemical
# Details: reversed-phase (C18) HPLC column; HPLC RP C18, acidic range pH 2.7, 0.1% formic acid/acetonitrile; read-out: logP[a]
row,chromatographic logP,Structure (SMILES)
1,0.27,CC1=NOC(c2ncc(C(=O)N(C)c3cccnc3)n2C)C1 (stereo not drawn) [Example I-1-1]
2,0.85,CN(C(=O)c1cnc(C2CC(C3CC3)=NO2)n1C)c1cccnc1 (stereo not drawn) [Example I-1-4]
3,1.84,CN(C(=O)c1cnc(C2CC(c3ccc(C(F)(F)F)cn3)=NO2)n1C)c1cccnc1 (stereo not drawn) [Example I-1-36]
4,1.45,CN(C(=O)c1cnc(C2CC(C(F)(F)F)=NO2)n1C)c1cccnc1 (stereo not drawn) [Example I-1-32]

# Same assay, conditions: reversed-phase (C18) HPLC column; HPLC RP C18, neutral range pH 7.8, ammonium hydrogencarbonate/acetonitrile; read-out: logP[n]
row,chromatographic logP,Structure (SMILES)
1,0.76,CC1=NOC(c2ncc(C(=O)N(C)c3cccnc3)n2C)C1 (stereo not drawn) [Example I-1-1]
2,1.15,CN(C(=O)c1cnc(C2CC(C3CC3)=NO2)n1C)c1cccnc1 (stereo not drawn) [Example I-1-4]
3,1.97,CN(C(=O)c1cnc(C2CC(c3ccc(C(F)(F)F)cn3)=NO2)n1C)c1cccnc1 (stereo not drawn) [Example I-1-36]
4,1.59,CN(C(=O)c1cnc(C2CC(C(F)(F)F)=NO2)n1C)c1cccnc1 (stereo not drawn) [Example I-1-32]

# Tested on: Myzus persicae
# Test: Myzus persicae - spray test
# Type: in vivo
# Details: Myzus persicae, foliar, 120 h; 500 g/ha, Chinese cabbage leaf discs, after 5 days; read-out: efficacy (aphids killed)
# Procedure: Myzus persicae—Spray Test
# (§1) To produce a suitable active ingredient formulation, 1 part by weight of active ingredient is dissolved with the specified parts by weight of solvent and made up to the desired concentration with water containing an emulsifier concentration of 1000 ppm. To produce further test concentrations, the formulation is diluted with emulsifier-containing water.
# (§2) Discs of Chinese cabbage leaves (Brassica pekinensis) infested by all stages of the green peach aphid (Myzus persicae) are sprayed with an active ingredient formulation of the desired concentration.
# (§3) After 5 days, the efficacy in % is determined. 100% means that all the aphids have been killed; 0% means that no aphids have been killed.
row,Structure (SMILES),pest or weed control at 500 g/ha
1,CC1=NOC(c2ncc(C(=O)N(C)c3cccnc3)n2C)C1 (stereo not drawn) [Example I-1-1],100%
2,CN(C(=O)c1cnc(C2CC(C3CC3)=NO2)n1C)c1cccnc1 (stereo not drawn) [Example I-1-4],90%
3,CN(C(=O)c1cnc(C2CC(c3ccc(C(F)(F)F)cn3)=NO2)n1C)c1cccnc1 (stereo not drawn) [Example I-1-36],100%
4,CN(C(=O)c1cnc(C2CC(C(F)(F)F)=NO2)n1C)c1cccnc1 (stereo not drawn) [Example I-1-32],90%

# Tested on: Myzus persicae
# Test: Myzus persicae - oral test
# Type: in vivo
# Details: Myzus persicae, 120 h; 4 ppm, oral, after 5 days; read-out: efficacy (aphids killed)
# Procedure: (§4) To produce a suitable active ingredient formulation, 1 part by weight of active ingredient is dissolved with the specified parts by weight of solvent and made up to the desired concentration with water.
# (§5) 50 μl of the active ingredient formulation are transferred into microtitre plates and made up to a final volume of 200 μl with 150 μl of IPL41 insect medium (33%+15% sugar). Subsequently, the plates are sealed with parafilm, which a mixed population of green peach aphids (Myzus persicae) within a second microtitre plate is able to puncture and imbibe the solution.
# as §3
row,Structure (SMILES),pest or weed control at 4 ppm
1,CC1=NOC(c2ncc(C(=O)N(C)c3cccnc3)n2C)C1 (stereo not drawn) [Example I-1-1],100%
2,CN(C(=O)c1cnc(C2CC(C3CC3)=NO2)n1C)c1cccnc1 (stereo not drawn) [Example I-1-4],100%
3,CN(C(=O)c1cnc(C2CC(c3ccc(C(F)(F)F)cn3)=NO2)n1C)c1cccnc1 (stereo not drawn) [Example I-1-36],100%
4,CN(C(=O)c1cnc(C2CC(C(F)(F)F)=NO2)n1C)c1cccnc1 (stereo not drawn) [Example I-1-32],100%

# Tested on: Myzus persicae
# Test: Myzus persicae - spray test (MYZUPE), comparison with prior art
# Type: in vivo
# Details: Myzus persicae, 120 h, 4 g/ha (g of ai/ha), 5 dat, read-out: % efficacy
# Procedure: Myzus persicae—Spray Test (MYZUPE)
# as §1, §2
# (§6) After the desired period of time, the efficacy in % is determined. 100% means that all the aphids have been killed; 0% means that no aphids have been killed.
row,Structure (SMILES),Emax at 4 g/ha
1,CC1=NOC(c2ncc(C(=O)N(C)c3cccnc3)n2C)C1 (stereo not drawn) [Example I-1-1],70%
2,CN(C(=O)c1cnc(C2CC(C3CC3)=NO2)n1C)c1cccnc1 (stereo not drawn) [Example I-1-4],70%
3,CN(C(=O)c1cnc(C2CC(c3ccc(C(F)(F)F)cn3)=NO2)n1C)c1cccnc1 (stereo not drawn) [Example I-1-36],100%

# Same assay, conditions: Myzus persicae, 120 h, 20 g/ha (g of ai/ha), 5 dat, read-out: % efficacy
row,Structure (SMILES),Emax at 20 g/ha
1,CC1=NOC(c2ncc(C(=O)N(C)c3cccnc3)n2C)C1 (stereo not drawn) [Example I-1-1],70%
2,CN(C(=O)c1cnc(C2CC(C3CC3)=NO2)n1C)c1cccnc1 (stereo not drawn) [Example I-1-4],100%
3,CN(C(=O)c1cnc(C2CC(c3ccc(C(F)(F)F)cn3)=NO2)n1C)c1cccnc1 (stereo not drawn) [Example I-1-36],90%

# Same assay, conditions: Myzus persicae, 120 h, 100 g/ha (g of ai/ha), 5 dat, read-out: % efficacy
row,Structure (SMILES),Emax at 100 g/ha
1,CC1=NOC(c2ncc(C(=O)N(C)c3cccnc3)n2C)C1 (stereo not drawn) [Example I-1-1],70%
2,CN(C(=O)c1cnc(C2CC(C3CC3)=NO2)n1C)c1cccnc1 (stereo not drawn) [Example I-1-4],90%
3,CN(C(=O)c1cnc(C2CC(c3ccc(C(F)(F)F)cn3)=NO2)n1C)c1cccnc1 (stereo not drawn) [Example I-1-36],90%

# Same assay, conditions: Myzus persicae, 120 h, 500 g/ha, 5 dat, read-out: % efficacy
row,Structure (SMILES),Emax at 500 g/ha
1,CC1=NOC(c2ncc(C(=O)N(C)c3cccnc3)n2C)C1 (stereo not drawn) [Example I-1-1],100%
2,CN(C(=O)c1cnc(C2CC(C3CC3)=NO2)n1C)c1cccnc1 (stereo not drawn) [Example I-1-4],90%
3,CN(C(=O)c1cnc(C2CC(c3ccc(C(F)(F)F)cn3)=NO2)n1C)c1cccnc1 (stereo not drawn) [Example I-1-36],100%
4,CN(C(=O)c1cnc(C2CC(C(F)(F)F)=NO2)n1C)c1cccnc1 (stereo not drawn) [Example I-1-32],90%

# Tested on: Myzus persicae
# Test: Myzus persicae - oral test (MYZUPE O), comparison with prior art
# Type: in vivo
# Details: Myzus persicae, po, 120 h, 0.8 ppm, 5 dat, read-out: % efficacy
# Procedure: Myzus persicae—Oral Test (MYZUPE O)
# as §4, §5, §6
row,Structure (SMILES),Emax at 0.8 ppm
1,CC1=NOC(c2ncc(C(=O)N(C)c3cccnc3)n2C)C1 (stereo not drawn) [Example I-1-1],100%
2,CN(C(=O)c1cnc(C2CC(C3CC3)=NO2)n1C)c1cccnc1 (stereo not drawn) [Example I-1-4],100%
3,CN(C(=O)c1cnc(C2CC(c3ccc(C(F)(F)F)cn3)=NO2)n1C)c1cccnc1 (stereo not drawn) [Example I-1-36],100%
4,CN(C(=O)c1cnc(C2CC(C(F)(F)F)=NO2)n1C)c1cccnc1 (stereo not drawn) [Example I-1-32],100%

# Same assay, conditions: Myzus persicae, po, 120 h, 4 ppm, 5 dat, read-out: % efficacy
row,Structure (SMILES),Emax at 4 ppm
1,CC1=NOC(c2ncc(C(=O)N(C)c3cccnc3)n2C)C1 (stereo not drawn) [Example I-1-1],100%
2,CN(C(=O)c1cnc(C2CC(C3CC3)=NO2)n1C)c1cccnc1 (stereo not drawn) [Example I-1-4],100%
3,CN(C(=O)c1cnc(C2CC(c3ccc(C(F)(F)F)cn3)=NO2)n1C)c1cccnc1 (stereo not drawn) [Example I-1-36],100%
4,CN(C(=O)c1cnc(C2CC(C(F)(F)F)=NO2)n1C)c1cccnc1 (stereo not drawn) [Example I-1-32],100%

# Tested on: Myzus persicae
# Test: Myzus persicae - spray test (MYZUPE S), bell pepper plants
# Type: in vivo
# Details: Myzus persicae, 144 h, 0.16 ppm, 6 dat, read-out: % efficacy
# Procedure: Myzus persicae—Spray Test (MYZUPE S)
# as §1, with “water. If the addition of ammonium salts or/and penetrants is required, these are each added in a concentration of 1000 ppm to the formulation solution.” for “water.”
# Bell pepper plants (Capsicum annuum) severely infested with the green peach aphid (Myzus persicae) are treated by spraying with the active ingredient formulation in the desired concentration.
# After the desired time, the kill in % is determined. 100% means that all the animals have been killed; 0% means that no animals have been killed.
row,Structure (SMILES),Emax at 0.16 ppm
1,CC1=NOC(c2ncc(C(=O)N(C)c3cccnc3)n2C)C1 (stereo not drawn) [Example I-1-1],100%
2,CN(C(=O)c1cnc(C2CC(C3CC3)=NO2)n1C)c1cccnc1 (stereo not drawn) [Example I-1-4],98%
3,CN(C(=O)c1cnc(C2CC(c3ccc(C(F)(F)F)cn3)=NO2)n1C)c1cccnc1 (stereo not drawn) [Example I-1-36],90%
4,CN(C(=O)c1cnc(C2CC(C(F)(F)F)=NO2)n1C)c1cccnc1 (stereo not drawn) [Example I-1-32],20%

# Same assay, conditions: Myzus persicae, 144 h, 0.8 ppm, 6 dat, read-out: % efficacy
row,Structure (SMILES),Emax at 0.8 ppm
1,CC1=NOC(c2ncc(C(=O)N(C)c3cccnc3)n2C)C1 (stereo not drawn) [Example I-1-1],95%
2,CN(C(=O)c1cnc(C2CC(C3CC3)=NO2)n1C)c1cccnc1 (stereo not drawn) [Example I-1-4],100%
3,CN(C(=O)c1cnc(C2CC(c3ccc(C(F)(F)F)cn3)=NO2)n1C)c1cccnc1 (stereo not drawn) [Example I-1-36],99%
4,CN(C(=O)c1cnc(C2CC(C(F)(F)F)=NO2)n1C)c1cccnc1 (stereo not drawn) [Example I-1-32],96%

# Tested on: Myzus persicae
# Test: Myzus persicae - drench test (MYZUPE D), savoy cabbage
# Type: in vivo
# Details: Myzus persicae, soil, 240 h, 0.16 ppm, 10 dat, read-out: % efficacy
# Procedure: Myzus persicae—Drench Test (MYZUPE D)
# To produce a suitable active ingredient formulation, 1 part by weight of active ingredient is mixed with the specified amounts of solvent and emulsifier, and the concentrate is diluted with water to the desired concentration, it being necessary to include the volume of soil which is drenched in the calculation. It should be ensured that a concentration of 40 ppm of emulsifier in the soil is not exceeded. To produce further test concentrations, water is used for dilution.
# Savoy cabbage (Brassica oleracea) in pots with soil and infested by all stages of the green peach aphid (Myzus persicae) is watered with an active ingredient formulation of the desired concentration.
# as §6
row,Structure (SMILES),Emax at 0.16 ppm
1,CC1=NOC(c2ncc(C(=O)N(C)c3cccnc3)n2C)C1 (stereo not drawn) [Example I-1-1],100%
2,CN(C(=O)c1cnc(C2CC(C3CC3)=NO2)n1C)c1cccnc1 (stereo not drawn) [Example I-1-4],95%
3,CN(C(=O)c1cnc(C2CC(c3ccc(C(F)(F)F)cn3)=NO2)n1C)c1cccnc1 (stereo not drawn) [Example I-1-36],70%
4,CN(C(=O)c1cnc(C2CC(C(F)(F)F)=NO2)n1C)c1cccnc1 (stereo not drawn) [Example I-1-32],90%

# Same assay, conditions: Myzus persicae, soil, 240 h, 0.8 ppm, 10 dat, read-out: % efficacy
row,Structure (SMILES),Emax at 0.8 ppm
1,CC1=NOC(c2ncc(C(=O)N(C)c3cccnc3)n2C)C1 (stereo not drawn) [Example I-1-1],100%
2,CN(C(=O)c1cnc(C2CC(C3CC3)=NO2)n1C)c1cccnc1 (stereo not drawn) [Example I-1-4],100%
3,CN(C(=O)c1cnc(C2CC(c3ccc(C(F)(F)F)cn3)=NO2)n1C)c1cccnc1 (stereo not drawn) [Example I-1-36],80%
4,CN(C(=O)c1cnc(C2CC(C(F)(F)F)=NO2)n1C)c1cccnc1 (stereo not drawn) [Example I-1-32],99%

# Tested on: Aphis gossypii
# Test: Aphis gossypii - spray test (APHIGO S), cotton plants
# Type: in vivo
# Details: 144 h, 0.16 ppm, 6 dat, read-out: % efficacy
# Procedure: Aphis gossypii—Spray Test (APHIGO S)
# as §1, with “water. If the addition of ammonium salts or/and penetrants is required, these are each added in a concentration of 1000 ppm to the formulation solution.” for “water.”
# Cotton plants (Gossypium hirsutum) heavily infested by the cotton aphid (Aphis gossypii) are sprayed with an active ingredient formulation of the desired concentration.
# After the desired time, the kill in % is determined. 100% means that all the aphids have been killed; 0% means that no aphids have been killed.
row,Structure (SMILES),Emax at 0.16 ppm
1,CC1=NOC(c2ncc(C(=O)N(C)c3cccnc3)n2C)C1 (stereo not drawn) [Example I-1-1],100%
2,CN(C(=O)c1cnc(C2CC(C3CC3)=NO2)n1C)c1cccnc1 (stereo not drawn) [Example I-1-4],90%
3,CN(C(=O)c1cnc(C2CC(C(F)(F)F)=NO2)n1C)c1cccnc1 (stereo not drawn) [Example I-1-32],90%

# Same assay, conditions: 144 h, 0.8 ppm, 6 dat, read-out: % efficacy
row,Structure (SMILES),Emax at 0.8 ppm
1,CC1=NOC(c2ncc(C(=O)N(C)c3cccnc3)n2C)C1 (stereo not drawn) [Example I-1-1],100%
2,CN(C(=O)c1cnc(C2CC(C3CC3)=NO2)n1C)c1cccnc1 (stereo not drawn) [Example I-1-4],100%
3,CN(C(=O)c1cnc(C2CC(c3ccc(C(F)(F)F)cn3)=NO2)n1C)c1cccnc1 (stereo not drawn) [Example I-1-36],97%
4,CN(C(=O)c1cnc(C2CC(C(F)(F)F)=NO2)n1C)c1cccnc1 (stereo not drawn) [Example I-1-32],97%
